Source: PubChem BioAssay (NCI)
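48-hour exposure; five concentrations; linearly interpolated endpoints. At the GI50, growth is halved. Definition used: TGI = concentration required for complete inhibition of growth.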

Legend:
Test in all cases: inhibition of tumour cell growth, NCI panel, 48 h
NCI-H460 lung = system: NCI-H460 lung
MOLT-4 leukemia = system: MOLT-4 leukemia
SF-268 CNS = system: SF-268 CNS
KM12 colon = system: KM12 colon
PC-3 prostate = system: PC-3 prostate
HT29 colon = system: HT29 colon
COLO 205 colon = system: COLO 205 colon
MALME-3M melanoma = system: MALME-3M melanoma
NCI-H226 lung = system: NCI-H226 lung
SK-MEL-28 melanoma = system: SK-MEL-28 melanoma

Structure (SMILES) | GI50 (NCI-H460 lung) | TGI (NCI-H460 lung) | GI50 (MOLT-4 leukemia) | TGI (MOLT-4 leukemia) | GI50 (SF-268 CNS) | TGI (SF-268 CNS) | GI50 (KM12 colon) | TGI (KM12 colon) | GI50 (PC-3 prostate) | TGI (PC-3 prostate) | GI50 (HT29 colon) | TGI (HT29 colon) | GI50 (COLO 205 colon) | TGI (COLO 205 colon) | GI50 (MALME-3M melanoma) | TGI (MALME-3M melanoma) | GI50 (NCI-H226 lung) | TGI (NCI-H226 lung) | GI50 (SK-MEL-28 melanoma) | TGI (SK-MEL-28 melanoma)
CCCCC[C@H]1C/C=C2/C(=O)C(Cl)=C[C@@H]2C/C=C\CCCC(=O)O1 | 0.629 µM | 1.91 µM | 0.117 µM | 2.98 µM | 0.803 µM | 3.72 µM | 0.518 µM | 1.33 µM | 0.473 µM | 1.27 µM | 0.461 µM | 2.26 µM | 0.438 µM | 0.975 µM | 0.573 µM | 1.53 µM | 0.544 µM | 1.5 µM | 0.472 µM | 1.12 µM
OCC1OC(n2cnc3c(NCc4ccccc4O)ncnc32)C(O)C1O (configuration not stated) | 8.57 µM | 46.3 µM | 0.596 µM | > 38 µM | 0.616 µM | > 100 µM | 5.23 µM | > 100 µM | 0.523 µM | > 50.1 µM | 2.23 µM | 52.9 µM | 0.524 µM | > 24.4 µM | 2.99 µM | > 75.5 µM | 8.65 µM | 23.2 µM | 4.15 µM | > 100 µM
C(=C\c1ccc(OCC2CO2)cc1)/C1=NCOC1 (configuration not stated) | 19.9 µM | 57.7 µM | 3.24 µM | 16.8 µM | 7.3 µM | 33.8 µM | 16.5 µM | 40.8 µM | 13.2 µM | 28 µM | 6.73 µM | 25.8 µM | 6.33 µM | 32.4 µM | 19.9 µM | 58.7 µM | 16.4 µM | 34.5 µM | 6.3 µM | 21.4 µM
O=c1[nH]c2ccccc2n1C1CCN(CCOc2ccccc2)CC1 | 18.7 µM | > 100 µM | 48 µM | > 100 µM | 39.1 µM | > 100 µM | 40.4 µM | > 100 µM | 10.7 µM | > 100 µM | 35.8 µM | > 100 µM | 14.5 µM | 45.8 µM | 51.5 µM | > 100 µM | 30.1 µM | > 100 µM | 47.9 µM | > 100 µM
Cc1cc(OCc2nn(CN3CCN(C)CC3)c(=S)n2/N=C/c2ccc(F)cc2)ccc1Cl | 17 µM | 31.8 µM | 14.7 µM | 34.9 µM | 19.6 µM | 38 µM | 17.9 µM | 37.5 µM | 16.2 µM | 31.6 µM | – | – | 12.6 µM | 25.7 µM | 22.8 µM | 43.4 µM | 17.7 µM | 33.6 µM | 15.2 µM | 31.5 µM
CCSCCCC(=O)O | – | – | – | > 100 µM | – | > 100 µM | – | > 100 µM | – | > 100 µM | – | > 100 µM | – | > 100 µM | – | > 100 µM | – | > 100 µM | – | > 100 µM
COc1cc(NCCC2CCCCN2)c2ncccc2c1OC (configuration not stated) | 10.5 µM | 24.8 µM | – | – | 14.2 µM | 41.8 µM | 14.9 µM | 33.5 µM | 18.1 µM | 72 µM | 13 µM | 33.6 µM | 10 µM | 24.2 µM | 14.2 µM | 30 µM | 23.5 µM | 46.8 µM | 11.7 µM | 24.8 µM
Oc1ccc(/C=N/NC(=S)Nc2cccnc2)nc1 | – | – | – | 15 µM | – | > 100 µM | – | > 100 µM | – | > 100 µM | – | > 100 µM | – | > 100 µM | – | 9.12 µM | – | > 100 µM | – | > 100 µM
CCN(CC)CCCC(C)Nc1ccnc(/C=C/c2ccc(Cl)cc2)c1 (configuration not stated) | – | 7.49 µM | – | – | – | 8.6 µM | – | 7.39 µM | – | 10.7 µM | – | 6.44 µM | – | 3.01 µM | – | 3.08 µM | 2.02 µM | 4.97 µM | – | 3.41 µM
COc1cccc(-c2nn(-c3ccccc3)cc2-c2ccnc(NCCCNS(=O)(=O)c3ccc(C(F)(F)F)cc3)c2)c1 | 6 µM | > 100 µM | – | – | 6.88 µM | > 100 µM | 4.02 µM | > 100 µM | 3.36 µM | > 100 µM | 3.21 µM | – | 2.5 µM | 7.77 µM | 3.4 µM | > 100 µM | 8.75 µM | > 100 µM | 9.1 µM | > 100 µM
Cn1cc(-c2nc(-c3cn(C)c4ncccc34)cs2)c2ccccc21 | 0.858 µM | 15.9 µM | 4.65 µM | > 100 µM | 4.83 µM | 37.3 µM | 0.61 µM | > 100 µM | 1.92 µM | 9.3 µM | – | – | 1.68 µM | 14 µM | 0.468 µM | 5.64 µM | 2.29 µM | 14.4 µM | 2.09 µM | > 100 µM
Nc1cc(N)c2nc(-c3ccccc3)c(NCc3ccc(Cl)c(Cl)c3)nc2c1 | 20.8 µM | 46.9 µM | 2.07 µM | > 100 µM | 19.8 µM | 55.2 µM | 3.42 µM | 21.3 µM | 1.75 µM | 5.16 µM | – | – | 16.9 µM | 33.6 µM | 3.41 µM | 13.8 µM | 22.6 µM | 46.3 µM | 18.8 µM | 41.7 µM
